Data taken from ChEMBL document CHEMBL4706744, “Discovery of Selective Transforming Growth Factor β Type II Receptor Inhibitors as Antifibrosis Agents” (ACS Med Chem Lett, 2021).

How the values were obtained:
[1] = Metabolic stability in human liver microsomes assessed as compound remaining at 1 uM incubated for 60 mins; format: ADME, Microsome; conditions: read-out: Stabilty
[2] = Metabolic stability in rat liver microsomes assessed as compound remaining at 1 uM incubated for 60 mins; format: ADME, Microsome; conditions: read-out: Stabilty
[3] = Total clearance in Sprague-Dawley rat at 0.3 mg/kg, iv measured up to 24 hrs by LC-MS/MS analysis; format: ADME, organism-based; conditions: in vivo
[4] = Oral bioavailability in mouse at 1 mg/kg by LC/MS analysis; format: ADME, organism-based; conditions: in vivo
[5] = Mean residence time in Sprague-Dawley rat at 0.3 mg/kg, iv measured up to 24 hrs by LC-MS/MS analysis; format: ADME, organism-based; conditions: in vivo
[6] = Half life in mouse at 1 mg/kg, po by LC/MS analysis; format: ADME, organism-based; conditions: in vivo
[7] = AUC in mouse at 1 mg/kg, po by LC/MS analysis; format: ADME, organism-based; design: dose 1 mg/kg; conditions: in vivo
[8] = Volume of distribution at steady state in Sprague-Dawley rat at 0.3 mg/kg, iv measured up to 24 hrs by LC-MS/MS analysis; format: ADME, organism-based; conditions: in vivo, read-out: Vdss
[9] = Apparent permeability across apical to basolateral side in human Caco2 cells incubated for 2 hrs by LC/MS/MS analysis; format: ADME, cell-based; conditions: Caco-2, read-out: permeability
[10] = Solubility of the compound measured after 4 hrs by LC analysis; format: physicochemical

Compound | remaining at 1 h, 1 µM [1] | remaining at 1 h, 1 µM [2] | other results
COc1cnc2c(-c3ccnc(OC)c3)cnn2c1 | 2% | 10% | 
COc1cn2ncc(-c3ccnc(OC(C)C)c3)c2nc1-c1cnn(C)c1 | 32% | 50% | 
Cn1cc(-c2nc3c(-c4ccnc(OC5CC5)c4)cnn3cc2OCCCC(C)(C)O)cn1 | 54% | 64% | 
Cn1cc(-c2nc3c(-c4ccnc(OC5CC5)c4)cnn3cc2OCC(C)(C)O)cn1 | 53% | 81% | 
Cn1cc(-c2nc3c(-c4ccnc(OC5CC5)c4)cnn3cc2OCCC(C)(C)O)cn1 | 74% | 84% | clearance [3]: 8.17 mL/min/kg; bioavailability [4]: 48%; MRT [5]: 5.5 h; half-life [6]: 4.6 h; AUC [7]: 2.3 µM·h; Vd [8]: 2.7 L/kg; Papp A→B at 2 h [9]: 1.4 ×10⁻⁶ cm/s; solubility [10]: Soluble
COc1cn2ncc(-c3ccnc(OC(C)(C)C)c3)c2nc1-c1cnn(C)c1 | 35% | 61% | 
CNc1nc2c(-c3ccnc(OC)c3)cnn2cc1OC | 63% | 74% | 
COc1cc(-c2cnn3cc(OC)c(C(C)(C)O)nc23)ccn1 | 66% | 92% | 
COc1cn2ncc(-c3ccnc(OC4CC4)c3)c2nc1-c1cnn(C)c1 | 47% | 32% | 
COc1cc(-c2cnn3cc(OC)c(-c4cnn(C)c4)nc23)ccn1 | 43% | 56% | 
COc1cc(-c2cnn3cc(OC)c(-c4cc(C)no4)nc23)ccn1 | 31% | 62% | 

The next lines start with results.

remaining at 1 h, 1 µM [1] | remaining at 1 h, 1 µM [2] | Compound | other results
40% | 14% | COc1cc(-c2cnn3cc(OC)c(C(C)C)nc23)ccn1 | 
29% | 34% | COc1cc(-c2cnn3cc(OC)c(C4CCOC4)nc23)ccn1 (centres undefined) | 
16% | 3% | COc1cc(-c2cnn3cc(OC)c(N(C)C)nc23)ccn1 | 
32% | 7% | COc1cc(-c2cnn3cc(OC)c(C4CCCC4)nc23)ccn1 | 
21% | 30% | COc1cc(-c2cnn3cc(OC)c([C@H]4COC(C)(C)C4)nc23)ccn1 | 
44% | 13% | COc1cc(-c2cnn3cc(OC)c(C)nc23)ccn1 | 
13% | 30% | COc1cc(-c2cnn3cc(OC)c([C@@H]4COC(C)(C)C4)nc23)ccn1 | 
